Results as given in ChEMBL document CHEMBL5653631, “A Potent and Selective ULK1 Inhibitor Suppresses Autophagy and Sensitizes Cancer Cells to Nutrient Stress” (iScience, 2018).
Values belong to the compound of their own block, whether it stands above or below them.

How the values were obtained:
[1] = molecular target: Mast/stem cell growth factor receptor Kit (Homo sapiens) (UniProt P10721); assay: Inhibition of human recombinant KIT at 500 nM in presence of ATP by radiometric assay relative to control
Sequence of Mast/stem cell growth factor receptor Kit (Homo sapiens) (P10721 whole entry): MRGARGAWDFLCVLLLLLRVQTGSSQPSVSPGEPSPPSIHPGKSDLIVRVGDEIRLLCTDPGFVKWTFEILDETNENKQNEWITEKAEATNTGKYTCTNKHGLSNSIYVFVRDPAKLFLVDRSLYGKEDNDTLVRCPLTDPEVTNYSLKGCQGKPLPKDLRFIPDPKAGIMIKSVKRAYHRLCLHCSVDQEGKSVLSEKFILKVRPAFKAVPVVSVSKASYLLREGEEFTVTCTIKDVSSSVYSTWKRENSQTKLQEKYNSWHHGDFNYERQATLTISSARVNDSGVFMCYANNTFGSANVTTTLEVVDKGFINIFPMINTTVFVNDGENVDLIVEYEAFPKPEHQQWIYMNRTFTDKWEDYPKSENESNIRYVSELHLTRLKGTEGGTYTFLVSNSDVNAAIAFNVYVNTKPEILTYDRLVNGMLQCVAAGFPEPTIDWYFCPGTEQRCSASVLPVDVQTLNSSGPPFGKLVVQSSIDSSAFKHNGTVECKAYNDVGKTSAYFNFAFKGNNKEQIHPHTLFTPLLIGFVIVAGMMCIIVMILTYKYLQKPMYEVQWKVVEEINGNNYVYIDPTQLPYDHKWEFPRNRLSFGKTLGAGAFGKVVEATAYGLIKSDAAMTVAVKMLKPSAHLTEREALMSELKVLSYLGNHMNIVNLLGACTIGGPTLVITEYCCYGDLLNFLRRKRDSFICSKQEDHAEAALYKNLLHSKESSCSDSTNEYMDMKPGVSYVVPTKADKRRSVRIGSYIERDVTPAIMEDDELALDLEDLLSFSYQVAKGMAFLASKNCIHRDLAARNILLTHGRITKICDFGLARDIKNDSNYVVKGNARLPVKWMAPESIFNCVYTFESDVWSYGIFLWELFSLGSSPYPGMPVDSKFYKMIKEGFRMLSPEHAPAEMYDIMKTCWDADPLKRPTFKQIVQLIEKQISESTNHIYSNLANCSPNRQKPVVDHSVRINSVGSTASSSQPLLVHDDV

[2] = molecular target: Insulin-like growth factor 1 receptor (Homo sapiens) (UniProt P08069); assay: Inhibition of human recombinant IGF1R at 40 nM in presence of ATP by radiometric assay relative to control
Sequence of Insulin-like growth factor 1 receptor (Homo sapiens) (P08069 31-736 limits assumed): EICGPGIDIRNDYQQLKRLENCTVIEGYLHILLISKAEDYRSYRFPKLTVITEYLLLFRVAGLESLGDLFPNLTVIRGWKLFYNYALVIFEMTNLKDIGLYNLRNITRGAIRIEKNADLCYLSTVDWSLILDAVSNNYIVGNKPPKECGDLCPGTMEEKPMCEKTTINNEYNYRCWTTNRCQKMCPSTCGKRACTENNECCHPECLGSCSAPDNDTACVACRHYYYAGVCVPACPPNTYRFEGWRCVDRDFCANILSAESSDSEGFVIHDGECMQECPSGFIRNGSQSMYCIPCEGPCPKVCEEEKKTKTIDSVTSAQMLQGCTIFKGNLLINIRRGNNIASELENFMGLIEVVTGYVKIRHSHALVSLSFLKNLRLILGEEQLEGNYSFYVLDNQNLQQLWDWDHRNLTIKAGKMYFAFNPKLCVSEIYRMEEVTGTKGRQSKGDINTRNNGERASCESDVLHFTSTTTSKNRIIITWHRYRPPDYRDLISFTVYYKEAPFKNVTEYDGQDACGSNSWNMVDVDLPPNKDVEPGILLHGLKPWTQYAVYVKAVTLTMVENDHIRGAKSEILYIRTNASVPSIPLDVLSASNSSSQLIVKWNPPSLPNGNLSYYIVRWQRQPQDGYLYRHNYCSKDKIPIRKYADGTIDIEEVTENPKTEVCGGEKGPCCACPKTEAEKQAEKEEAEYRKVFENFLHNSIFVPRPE
Sequence of Insulin-like growth factor 1 receptor (Homo sapiens) (P08069 741-1367 limits assumed): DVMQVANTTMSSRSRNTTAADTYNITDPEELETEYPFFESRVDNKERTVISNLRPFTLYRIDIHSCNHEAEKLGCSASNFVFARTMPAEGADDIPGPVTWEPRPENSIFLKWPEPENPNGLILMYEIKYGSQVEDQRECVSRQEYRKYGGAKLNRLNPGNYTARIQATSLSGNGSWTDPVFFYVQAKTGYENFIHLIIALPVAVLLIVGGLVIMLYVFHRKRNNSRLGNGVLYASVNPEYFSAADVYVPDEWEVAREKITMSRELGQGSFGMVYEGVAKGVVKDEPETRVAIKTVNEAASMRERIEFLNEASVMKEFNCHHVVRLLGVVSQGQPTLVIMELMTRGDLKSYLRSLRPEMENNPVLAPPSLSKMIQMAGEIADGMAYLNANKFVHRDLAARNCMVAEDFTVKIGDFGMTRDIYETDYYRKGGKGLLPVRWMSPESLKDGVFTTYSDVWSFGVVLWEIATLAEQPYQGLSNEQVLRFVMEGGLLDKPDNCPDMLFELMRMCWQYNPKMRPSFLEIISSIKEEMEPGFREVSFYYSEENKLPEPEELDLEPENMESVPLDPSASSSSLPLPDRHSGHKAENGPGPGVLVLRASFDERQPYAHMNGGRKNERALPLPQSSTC

[3] = molecular target: T1, NUAK family SNF1-like kinase 2 (Homo sapiens) (UniProt Q9H093); assay: Inhibition of human recombinant NuaK2 at 40 nM related to control ULK1
T1 sequence (whole entry): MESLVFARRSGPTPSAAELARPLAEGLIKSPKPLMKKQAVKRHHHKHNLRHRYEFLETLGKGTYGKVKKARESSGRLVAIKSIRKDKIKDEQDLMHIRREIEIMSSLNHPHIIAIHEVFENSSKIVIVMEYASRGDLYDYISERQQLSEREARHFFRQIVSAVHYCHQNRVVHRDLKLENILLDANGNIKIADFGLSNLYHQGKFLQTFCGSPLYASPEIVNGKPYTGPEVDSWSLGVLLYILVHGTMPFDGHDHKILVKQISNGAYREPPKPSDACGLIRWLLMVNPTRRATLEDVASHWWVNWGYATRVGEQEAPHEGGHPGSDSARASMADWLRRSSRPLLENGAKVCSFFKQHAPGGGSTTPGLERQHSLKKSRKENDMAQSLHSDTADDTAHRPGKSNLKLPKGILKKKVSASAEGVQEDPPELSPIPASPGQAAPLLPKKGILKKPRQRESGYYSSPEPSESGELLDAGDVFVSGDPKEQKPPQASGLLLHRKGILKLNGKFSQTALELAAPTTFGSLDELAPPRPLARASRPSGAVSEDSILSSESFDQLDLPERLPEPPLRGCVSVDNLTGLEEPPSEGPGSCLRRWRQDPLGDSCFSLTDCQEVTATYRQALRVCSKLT

[4] = molecular target: T2, Protein kinase C epsilon type (Homo sapiens) (UniProt Q02156); assay: Inhibition of human recombinant PKCe at 15 nM in presence of ATP by radiometric assay relative to control
T2 sequence (whole entry): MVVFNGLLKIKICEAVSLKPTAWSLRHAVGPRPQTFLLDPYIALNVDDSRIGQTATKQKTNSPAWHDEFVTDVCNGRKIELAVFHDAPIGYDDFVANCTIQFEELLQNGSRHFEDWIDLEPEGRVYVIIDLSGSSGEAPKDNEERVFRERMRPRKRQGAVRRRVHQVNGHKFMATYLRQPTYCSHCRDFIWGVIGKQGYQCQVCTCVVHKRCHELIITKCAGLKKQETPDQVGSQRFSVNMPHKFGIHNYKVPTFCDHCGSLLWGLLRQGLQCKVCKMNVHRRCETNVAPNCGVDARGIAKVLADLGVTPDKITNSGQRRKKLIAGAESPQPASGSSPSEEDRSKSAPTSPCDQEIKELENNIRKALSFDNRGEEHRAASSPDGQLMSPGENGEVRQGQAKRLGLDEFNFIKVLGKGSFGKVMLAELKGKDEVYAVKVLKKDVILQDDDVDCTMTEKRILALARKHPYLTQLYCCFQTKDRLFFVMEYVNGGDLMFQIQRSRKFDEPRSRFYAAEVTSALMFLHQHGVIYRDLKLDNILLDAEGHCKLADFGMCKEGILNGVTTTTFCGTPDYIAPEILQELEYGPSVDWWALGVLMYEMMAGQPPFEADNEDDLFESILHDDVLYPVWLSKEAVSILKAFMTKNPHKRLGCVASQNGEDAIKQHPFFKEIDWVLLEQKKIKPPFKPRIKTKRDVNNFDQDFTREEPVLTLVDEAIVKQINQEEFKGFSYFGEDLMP

[5] = molecular target: T3, cGMP-dependent protein kinase 2 (Homo sapiens) (UniProt Q13237); assay: Inhibition of human recombinant PKG2 at 15 nM related to control ULK1
T3 sequence (whole entry): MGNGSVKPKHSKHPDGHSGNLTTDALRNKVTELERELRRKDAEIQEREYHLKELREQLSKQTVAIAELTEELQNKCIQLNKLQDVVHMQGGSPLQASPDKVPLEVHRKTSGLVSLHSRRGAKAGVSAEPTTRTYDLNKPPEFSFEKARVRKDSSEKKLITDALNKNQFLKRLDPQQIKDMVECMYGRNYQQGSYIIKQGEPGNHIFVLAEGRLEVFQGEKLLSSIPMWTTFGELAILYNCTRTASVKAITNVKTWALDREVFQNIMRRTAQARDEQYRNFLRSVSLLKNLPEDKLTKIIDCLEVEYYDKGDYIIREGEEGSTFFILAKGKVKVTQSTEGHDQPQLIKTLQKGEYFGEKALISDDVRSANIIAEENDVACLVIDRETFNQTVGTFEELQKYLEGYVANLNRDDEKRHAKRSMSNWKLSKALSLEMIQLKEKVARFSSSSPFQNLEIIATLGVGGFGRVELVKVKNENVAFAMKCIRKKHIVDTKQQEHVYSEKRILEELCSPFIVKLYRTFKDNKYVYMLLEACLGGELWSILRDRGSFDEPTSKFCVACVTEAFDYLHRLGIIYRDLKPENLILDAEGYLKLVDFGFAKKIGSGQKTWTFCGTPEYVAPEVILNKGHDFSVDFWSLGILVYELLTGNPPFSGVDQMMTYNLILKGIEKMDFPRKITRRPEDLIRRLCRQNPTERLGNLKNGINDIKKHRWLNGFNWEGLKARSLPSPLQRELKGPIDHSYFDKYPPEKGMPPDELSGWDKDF

inhibition [1]: 1%
Compound: CNC(=O)c1ccccc1Oc1nc(Nc2cc(OC)c(OC)c(OC)c2)ncc1Br

inhibition [2]: 0%
fold change (FC) [3]: 0.04
Compound: O=C(N[C@@H](C1CC1)C(F)(F)F)c1cc(-c2cnn3cc(-c4ccc(F)cc4)cnc23)cs1

inhibition [4]: 0%
fold change (FC) [5]: 0.05
Compound: CC(C)[C@H](NC(=O)c1cc(-c2cnn3cc(-c4ccc(OCCN5CCCCC5)cc4)cnc23)cs1)C(F)(F)F
